The values below come from ChEMBL document CHEMBL4610048, “Design, synthesis, and evaluation of novel 4-amino-2-(4-benzylpiperazin-1-yl)methylbenzonitrile compounds as Zika inhibitors” (Bioorg Med Chem Lett, 2020).

Data set [1] relates to Zika virus. Put plainly: Antiviral activity against Zika virus infected in African green monkey Vero E6 cells assessed as inhibition of viral induced cytopathic effect at 10 uM relative to control. The class given is functional. The following applies: Vero C1008.
The nature of data set [2]: Cytotoxicity against African green monkey Vero E6 cells assessed as cell viability at 10 uM relative to control. The class given is cell-based, Vero C1008. The following applies: chlorocebus sabaeus, read-out: Activity.
The nature of data set [3]: Cytotoxicity against African green monkey Vero E6 cells assessed as reduction in cell viability. The class given is cell-based, Vero C1008. The following applies: chlorocebus sabaeus.
Data set [4] has as its system Zika virus. The data set can be described thus: Antiviral activity against Zika virus infected in African green monkey Vero E6 cells assessed as reduction in viral induced cytopathic effect. It is filed as functional, organism-based. The following applies: Vero C1008. In general terms: Protection from cytopathic effect is a common read-out in antiviral testing.
Data set [5] can be described thus: Selectivity index, ratio of CC50 for African green monkey Vero E6 cells to EC50 for Zika virus infected in African green monkey Vero E6 cells assessed as inhibition of viral induced cytopathic effect. The conditions noted are these: read-out: Ratio CC50/EC50. It is filed as toxicity, Vero C1008.
In data set [6] the test system is Zika virus. The data set can be described thus: Antiviral activity against Zika virus infected in African green monkey Vero E6 cells assessed as suppression of viral envelope protein expression at 10 uM incubated for 96 hrs by Western blot analysis. It is filed as functional, organism-based. The following applies: Vero C1008. (Immunoblotting shows a protein as a band on a membrane.)

Data set [7] concerns Zika virus. Put plainly: Antiviral activity against Zika virus infected in African green monkey Vero E6 cells assessed as suppression of viral RNA synthesis at 10 uM incubated for 96 hrs by qRT-PCR analysis. It is filed as functional, organism-based. The following applies: Vero C1008. (In general: Real-time PCR tracks product formation cycle by cycle.)
Data set [8] has as its system Zika virus. The data set can be described thus: Antiviral activity against Zika virus infected in African green monkey Vero E6 cells assessed as inhibition of viral induced cytopathic effect at 40 uM relative to control. The conditions noted are these: Vero C1008. It is filed as functional.
Data set [9] is described as follows: Cytotoxicity against African green monkey Vero E6 cells assessed as cell viability at 40 uM relative to control. The class given is cell-based, Vero C1008. The following applies: chlorocebus sabaeus, read-out: Activity.
The test system of data set [10] is Zika virus. The data set can be described thus: Antiviral activity against Zika virus infected in African green monkey Vero E6 cells assessed as suppression of viral envelope protein expression incubated for 96 hrs by Western blot analysis. The class given is functional, organism-based. The following applies: Vero C1008.
The test system of data set [11] is Zika virus. Put plainly: Antiviral activity against Zika virus infected in African green monkey Vero E6 cells assessed as suppression of viral RNA synthesis incubated for 96 hrs by qRT-PCR analysis. The class given is functional, organism-based. The conditions noted are these: Vero C1008.
Data set [12] deals with Zika virus. Put plainly: Antiviral activity against Zika virus infected in African green monkey Vero E6 cells assessed as suppression of viral envelope protein expression at 1.25 to 10 uM incubated for 96 hrs by Western blot analysis. The class given is functional, organism-based. The conditions noted are these: Vero C1008.
In data set [13] the test system is Zika virus. The data set can be described thus: Antiviral activity against Zika virus infected in African green monkey Vero E6 cells assessed as suppression of viral RNA synthesis at 1.25 to 10 uM incubated for 96 hrs by qRT-PCR analysis. It is filed as functional, organism-based. The following applies: Vero C1008.

Activity calls are given as the source filed them. The calls are words filed in the database; no cut-off is given here. A value given as a limit tells only on which side of the number the result lay.

Usually inhibition stands for the drop in the measured response relative to a control, in per cent. `CN(C)c1ccc(C#N)c(CN2CCN(Cc3ccc(C(F)(F)F)cc3)CC2)c1`: the inhibition at 10 µM in the data set with Zika virus [1] was 19.2%. Also, in [2], the viability at 10 µM came out at 90.5%.
Taken in the same sequence, the figures for `CN(C)CCN(C)c1ccc(C#N)c(CN2CCN(Cc3cccc(Cl)c3)CC2)c1` were 54.8% and 73.6%.
Take `N#Cc1ccccc1CN1CCN(Cc2ccccc2C#N)CC1`: the inhibition at 10 µM with Zika virus [1] was 34.7%. In [2], the viability at 10 µM turned out to be 93.8%.
Taken in the same sequence, the figures for `CN(C)CCN(C)c1ccc(C#N)c(CN2CCN(Cc3ccc(F)cc3)CC2)c1` were 60.7% and 85.1%.
As usually defined, the CC50 is the concentration that lowers cell viability or growth by half. In general, EC50 refers to the concentration needed to bring the measured effect to its halfway point. Turning to `N#Cc1ccc(NCCCn2ccnc2)cc1CN1CCN(Cc2ccc(C(F)(F)F)cc2)CC1`, the inhibition at 10 µM in the data set on Zika virus [1] was determined as 66.5%. Further, the viability at 10 µM in [2] was 70%. Besides, in data set [3], the cytotoxic concentration (CC50) was 23.7 µM. The concentration giving a half-maximal response (EC50) in the data set with Zika virus [4] was determined as 4.9 µM. The selectivity ratio in data set [5] is 5. For the same compound, the inhibition entry in the data set with Zika virus [6] and in the data set on Zika virus [7] was “Active” each time.
As for `CC(c1ccccc1)N1CCN(Cc2ccccc2C#N)CC1` (stereo not given), the inhibition at 10 µM in the data set on Zika virus [1] worked out at 35.8%. In addition, the viability at 10 µM in data set [2] worked out at 77.5%.
Turning to `CC(=O)N1CCN(c2ccc(C#N)c(CN3CCN(Cc4ccc(C(F)(F)F)cc4)CC3)c2)CC1`, in the data set with Zika virus [1], the inhibition at 10 µM worked out at 15.1%. Further, in data set [2], the viability at 10 µM amounted to 89.1%.
Taken in the same sequence, the figures for `CN(CCc1ccccc1)c1ccc(C#N)c(CN2CCN(Cc3ccc(C(F)(F)F)cc3)CC2)c1` were 35.1% and 73.6%.
Take `CN1CCCN(c2ccc(C#N)c(CN3CCN(Cc4ccccc4)CC3)c2)CC1`: the inhibition at 10 µM with Zika virus [1] was determined as 84.3%. Besides, the viability at 10 µM in data set [2] was determined as 93.6%. Besides, in data set [3], the CC50 is over 100 µM. In addition, in the data set with Zika virus [4], the EC50 came to 5.3 µM. In data set [5], the selectivity ratio is over 19.
With `CN1CCCN(c2ccc(C#N)c(CN3CCN(Cc4ccccc4C#N)CC3)c2)CC1`, the inhibition at 10 µM in the data set on Zika virus [1] was found to be 36.2%. Further, the viability at 10 µM in data set [2] was determined as 87.1%.
Regarding `CN1CCN(c2ccc(C#N)c(CN3CCN(Cc4ccc(C(F)(F)F)cc4)CC3)c2)CC1`, in the data set on Zika virus [1], the inhibition at 10 µM was determined as 0.3%. Besides, the viability at 10 µM in data set [2] is 84.5%.
For the compound `CC(c1ccccc1)N1CCN(Cc2cc(N(C)CCN(C)C)ccc2C#N)CC1` (stereo not given), the inhibition at 10 µM in the data set on Zika virus [1] turned out to be 43%. The viability at 10 µM in [2] was determined as 64.7%.
For `CN(C)CCN(C)c1ccc(C#N)c(CN2CCN(Cc3ccc(C#N)cc3)CC2)c1`, the inhibition at 10 µM in the data set on Zika virus [1] was determined as 75.5%. Moreover, the viability at 10 µM in data set [2] came out at 77.4%. Also, in data set [3], the cytotoxic concentration (CC50) came out at 66 µM. Also, in the data set on Zika virus [4], the concentration giving a half-maximal response (EC50) was 5.6 µM. Further, the selectivity ratio in data set [5] turned out to be 10.
Consider `CN(C)CCOc1ccc(C#N)c(CN2CCN(Cc3ccc(C(F)(F)F)cc3)CC2)c1`, for which the inhibition at 10 µM in the data set with Zika virus [1] turned out to be 32.8%. In addition, in data set [2], the viability at 10 µM worked out at 80.1%.
For `NC(=O)c1ncn([C@@H]2O[C@H](CO)[C@@H](O)[C@H]2O)n1` [RIBAVIRIN], in the data set on Zika virus [8], the inhibition at 40 µM worked out at 37%. The viability at 40 µM in data set [9] came to 94.5%. Besides, the 50% cytotoxic concentration (CC50) in [3] was over 100 µM. Further, the EC50 in the data set on Zika virus [4] was found to be 33 µM. The selectivity ratio in data set [5] is over 3.
For `CN(C)CCN(C)c1ccc(C#N)c(CN2CCN(Cc3ccccc3Cl)CC2)c1`, the inhibition at 10 µM in the data set on Zika virus [1] was 70.4%. In addition, the viability at 10 µM in data set [2] is 86.1%. For the same compound, the CC50 in data set [3] is over 100 µM. The 50% effective concentration (EC50) with Zika virus [4] worked out at 5.1 µM. Further, the selectivity ratio in data set [5] is over 20. In addition, the inhibition entry in the data set on Zika virus [10] and with Zika virus [11] was “Dose-dependent effect” each time.
Regarding `CC(c1ccccc1)N1CCN(Cc2cc(N3CCCN(C)CC3)ccc2C#N)CC1` (stereo not given), in the data set with Zika virus [1], the inhibition at 10 µM was 26.7%. Also, the viability at 10 µM in data set [2] was determined as 55.1%.
Regarding `N#Cc1ccc(NCCCn2ccnc2)cc1CN1CCN(Cc2ccc(F)cc2)CC1`, the inhibition at 10 µM in the data set with Zika virus [1] is 58.3%. The viability at 10 µM in data set [2] turned out to be 96.5%.
For `CN(C)CCN(C)c1ccc(C#N)c(CN2CCN(C3CCc4ccccc4C3)CC2)c1` (stereo not given) the same measures were 81.8% and 67.8%.
Take `N#Cc1ccc(N2CCNCC2)cc1CN1CCN(Cc2ccc(C(F)(F)F)cc2)CC1`: in the data set with Zika virus [1], the inhibition at 10 µM came to 0.5%. Moreover, the viability at 10 µM in [2] was determined as 89%.
In the case of `CN1CCCN(c2ccc(C#N)c(CN3CCN(Cc4ccc(C#N)cc4)CC3)c2)CC1`, the inhibition at 10 µM in the data set on Zika virus [1] amounted to 77.4%. Also, in data set [2], the viability at 10 µM turned out to be 76%. In addition, the cytotoxic concentration (CC50) in [3] was over 100 µM. In the data set on Zika virus [4], the EC50 amounted to 4.4 µM. Also, the selectivity ratio in data set [5] was over 22. Also, the inhibition result in the data set on Zika virus [12] and in the data set on Zika virus [13] was “inactive” each time.
As for `CN1CCCN(c2ccc(C#N)c(CN3CCN(Cc4ccc(C(F)(F)F)cc4)CC3)c2)CC1`, the inhibition at 10 µM in the data set on Zika virus [1] amounted to 47.5%. In addition, in [2], the viability at 10 µM stood at 81.3%.
Take `COc1ccc(CN2CCN(Cc3cc(N4CCCN(C)CC4)ccc3C#N)CC2)cc1`: the inhibition at 10 µM in the data set with Zika virus [1] came out at 59.2%. Moreover, the viability at 10 µM in [2] was determined as 65.8%.
For `N#Cc1ccc(NCCN2CCOCC2)cc1CN1CCN(Cc2ccc(C(F)(F)F)cc2)CC1`, the inhibition at 10 µM with Zika virus [1] is 47.5%. Also, the viability at 10 µM in data set [2] is 79.2%.
For `N#Cc1ccc(NCCn2cccc2)cc1CN1CCN(Cc2ccc(C(F)(F)F)cc2)CC1` the same measures were 56.2% and 75.7%.
For `CN1CCCN(c2ccc(C#N)c(CN3CCN(Cc4ccc(F)cc4)CC3)c2)CC1` the same measures were 55.1% and 79.3%.
`CN(C)CCN(C)c1ccc(C#N)c(CN2CCN(Cc3ccc(Cl)cc3)CC2)c1`: the inhibition at 10 µM with Zika virus [1] came to 50.9%. In addition, in [2], the viability at 10 µM was determined as 82.1%.
Consider `N#Cc1ccc(CN2CCN(Cc3ccc(C#N)cc3)CC2)cc1`, for which the inhibition at 10 µM with Zika virus [1] worked out at 12.6%. Also, the viability at 10 µM in data set [2] came out at 89.6%.
